For orientation: IC50 means the midpoint of a concentration-inhibition curve. A word on the IC90: it is the concentration at which the effect reaches the 90% level.

This test relates to Plasmodium berghei. Nature of the test: Luciferase/luciferin-expressing antifolate-resistant parasites were used to infect a culture of HepG2 cells that were pre-incubated with compounds. Infected hepatocytes emit light due to the luciferase reaction. Assay results are presented as the percent inhibition of light emission compared to control. […]. The format is functional. The note with it: sporozoite; for IC90: read-out: LUCIFERASE INFECTION ASSAY - IC90.

Where [1] appears, read: read-out: LUCIFERASE INFECTION ASSAY - IC50.

On to `CC(C)(C)c1nc2ccc(NC(=O)c3ccc(Cl)c(S(=O)(=O)NC4CC4)c3)cc2[nH]1`, for which the 90% effect concentration (IC90) is over 10 µM. Moreover, the 50% inhibitory concentration (IC50) (HEPG2TOX_HILL_SLOPE 8.98, HEPG2TOX_R_SQUARED 0.824, PBLUC_HILL_SLOPE 3.11, PBLUC_R_SQUARED 0.121, read-out: LUCIFERASE INFECTION ASSAY - IC50) is 7.36 µM.

`O=C(c1cc(-c2ccccc2)n[nH]1)N1CCN(c2ccccc2F)CC1`: the IC90 was over 10 µM. Moreover, the IC50 under setting [1] was over 10 µM.

Regarding `N#C/C(=C\C=C\c1ccccc1[N+](=O)[O-])C(=O)NC1CCCCC1`, the IC90 turned out to be 4.14 µM. For the same compound, the IC50 (HEPG2TOX_HILL_SLOPE 4.42, HEPG2TOX_R_SQUARED 0.954, PBLUC_HILL_SLOPE 12.2, PBLUC_R_SQUARED 0.458, read-out: LUCIFERASE INFECTION ASSAY - IC50) is 3.46 µM.

As to `S=C(NCc1ccco1)Nc1ccc(Oc2ccc(Cl)cc2)cc1`, the IC90 was over 9.2 µM. For the same compound, the 50% inhibitory concentration (IC50) under setting [1] was over 9.2 µM.

`O=c1[nH]c2ccccc2c(=O)n1CC1(N2CCCCC2)CCCCC1`: the concentration for an effect of 90% (IC90) was over 10 µM. For the same compound, under setting [1], the IC50 was over 10 µM.

Regarding `O=C(Nc1cc(S(=O)(=O)N2CCCC2)ccc1O)c1sccc1-n1cccc1`, the IC90 worked out at 3.25 µM. Further, the IC50 (FFLUC_HILL_SLOPE 4.58, FFLUC_R_SQUARED 0.706, PBLUC_HILL_SLOPE 1.57, PBLUC_R_SQUARED 0.879, read-out: LUCIFERASE INFECTION ASSAY - IC50) was 0.802 µM.

Take `COc1cc(NC(=O)N2Cc3cnc(Nc4ccc(Oc5ccccc5)cc4)nc3C2)cc(OC)c1OC`: the IC90 is over 6.43 µM. Further, the IC50 (PBLUC_HILL_SLOPE 5.21, PBLUC_R_SQUARED 0.0507, read-out: LUCIFERASE INFECTION ASSAY - IC50) is 5.26 µM.

Turning to `Cc1ccc(C)c(OCC(O)CN2CCN(Cc3nc(-c4ccc(Cl)cc4)no3)CC2)c1` (configuration not stated), the 90% effect concentration (IC90) was 7.62 µM. Besides, the 50% inhibitory concentration (IC50) (HEPG2TOX_HILL_SLOPE 2.12, HEPG2TOX_R_SQUARED 0.919, PBLUC_HILL_SLOPE 1.87, PBLUC_R_SQUARED 0.881, read-out: LUCIFERASE INFECTION ASSAY - IC50) was determined as 2.36 µM.

As for `O=C(Nc1nc2ccc(OC(F)(F)F)cc2s1)c1cnccn1`, the concentration for an effect of 90% (IC90) is 3.41 µM. Moreover, the IC50 (FFLUC_HILL_SLOPE 1.04, FFLUC_R_SQUARED 0.266, PBLUC_HILL_SLOPE 101, PBLUC_R_SQUARED 0.2, read-out: LUCIFERASE INFECTION ASSAY - IC50) stood at 3.33 µM.

As to `CC(C)c1cccc(-c2ccc3nnc(-c4ccc5c(c4)NC(=O)CO5)n3c2)c1`, the IC90 was over 10 µM. The half-maximal inhibitory concentration (IC50) (HEPG2TOX_HILL_SLOPE 7.77, HEPG2TOX_R_SQUARED 0.643, read-out: LUCIFERASE INFECTION ASSAY - IC50) is over 10 µM.

Regarding `CNC(=O)c1ccc(CN(C2CC2)S(=O)(=O)c2ccc(Br)s2)cc1`, the IC90 is over 10 µM. Moreover, the IC50 (PBLUC_HILL_SLOPE 3.54, PBLUC_R_SQUARED 0.19, read-out: LUCIFERASE INFECTION ASSAY - IC50) was 5.83 µM.

With `Cc1c2cnn(C)c(=O)c2c(C)n1Cc1cccs1`, the IC90 is over 12.1 µM. Also, the IC50 (PBLUC_HILL_SLOPE 0.733, PBLUC_R_SQUARED 0.45, read-out: LUCIFERASE INFECTION ASSAY - IC50) is 4.19 µM.

`CN(Cc1c(F)cccc1Cl)C(=O)COc1ccc2[nH]c3ccccc3c(=O)c2c1`: the IC90 stood at 1.11 µM. The IC50 (PBLUC_HILL_SLOPE 2.98, PBLUC_R_SQUARED 0.795, read-out: LUCIFERASE INFECTION ASSAY - IC50) stood at 0.53 µM.

In the case of `O=C(CSc1nnc(-c2ccc(Cl)cc2Cl)n1-c1ccc(F)c(Cl)c1)NCCC1=CCCCC1`, the IC90 was over 10 µM. The IC50 (FFLUC_HILL_SLOPE 2.41, FFLUC_R_SQUARED 0.138, HEPG2TOX_HILL_SLOPE 7.97, HEPG2TOX_R_SQUARED 0.0659, PBLUC_HILL_SLOPE 2.87, PBLUC_R_SQUARED 0.0345, read-out: LUCIFERASE INFECTION ASSAY - IC50) was found to be 8.61 µM.

As for `CCOC(=O)c1c(C)oc2c1cc(OS(=O)(=O)c1ccc(NC(C)=O)cc1)c1ccccc12`, the concentration for an effect of 90% (IC90) was 9.89 µM. Further, the concentration for half-maximal inhibition (IC50) (HEPG2TOX_HILL_SLOPE 2.44, HEPG2TOX_R_SQUARED 0.99, PBLUC_HILL_SLOPE 3.26, PBLUC_R_SQUARED 0.643, read-out: LUCIFERASE INFECTION ASSAY - IC50) stood at 5.05 µM.

Take `O=C(NC1CCCc2ccccc21)c1oc2ccccc2c1CSc1nccs1` (configuration not stated): the IC90 was over 10 µM. Besides, under setting [1], the 50% inhibitory concentration (IC50) was found to be 6.48 µM.

As to `COc1cc(NC(=O)Nc2ccc3nc(-c4ccoc4)nn3c2)cc(OC)c1OC`, the 90% effect concentration (IC90) is over 10 µM. The IC50 under setting [1] is over 10 µM.

As for `Clc1ccc(-n2nnnc2Sc2ncnc3sc4c(c23)CCC4)cc1`, the IC90 is over 10 µM. Also, for the setting “FFLUC_HILL_SLOPE 0.273, FFLUC_R_SQUARED 0.315, read-out: LUCIFERASE INFECTION ASSAY - IC50”, the IC50 is over 10 µM.

With `CCOC(=O)c1c(C)[nH]c(C(=O)Nc2ncccc2C)c1C`, the IC90 was over 10 µM. The IC50 (PBLUC_HILL_SLOPE 1.33, PBLUC_R_SQUARED 0.354, read-out: LUCIFERASE INFECTION ASSAY - IC50) stood at 2.54 µM.

Regarding `CCCCNC(=O)c1c(NC(=O)c2ccccc2)nc2ccc(C)cn12`, the 90% effect concentration (IC90) is 6.8 µM. Moreover, the IC50 (FFLUC_HILL_SLOPE 60.4, FFLUC_R_SQUARED 0.28, HEPG2TOX_HILL_SLOPE 6.52, HEPG2TOX_R_SQUARED 0.955, PBLUC_HILL_SLOPE 4.31, PBLUC_R_SQUARED 0.763, read-out: LUCIFERASE INFECTION ASSAY - IC50) is 4.08 µM.

With `Cc1noc(C)c1S(=O)(=O)N(C)Cc1ccc(-c2ccc(Cl)cc2)o1`, the IC90 is over 10 µM. Moreover, the IC50 under setting [1] was over 10 µM.

As to `Cc1c(C(=O)Nc2ccccc2O)cnn1-c1cccc(C(F)(F)F)c1`, the IC90 is 3.64 µM. Moreover, the IC50 (PBLUC_HILL_SLOPE 22.3, PBLUC_R_SQUARED 0.482, read-out: LUCIFERASE INFECTION ASSAY - IC50) worked out at 3.29 µM.

For the compound `COc1cc(C(=O)Nc2cccc(-n3cnnn3)c2)cc(OC)c1OC`, the IC90 is over 9.29 µM. Also, the IC50 (PBLUC_HILL_SLOPE 1.51, PBLUC_R_SQUARED 0.135, read-out: LUCIFERASE INFECTION ASSAY - IC50) is 5.06 µM.

For `COC(=O)c1cc(CNC(=O)c2ccccc2O)ccc1OC`, the IC90 was over 10 µM. Moreover, under setting [1], the half-maximal inhibitory concentration (IC50) was over 10 µM.

For the compound `CC(C)(C(=O)NCCc1ccccc1)n1cc(-c2ccc3c(c2)OCCO3)cn1`, the IC90 was over 10 µM. The IC50 under setting [1] is over 10 µM.

For `Cc1c(S(=O)(=O)c2ccc(Cl)cc2)csc1NC(=O)Nc1cc(C2CC2)n[nH]1`, the IC90 was over 7.55 µM. In addition, the IC50 (HEPG2TOX_HILL_SLOPE 0.224, HEPG2TOX_R_SQUARED 0.199, PBLUC_HILL_SLOPE 2.99, PBLUC_R_SQUARED 0.447, read-out: LUCIFERASE INFECTION ASSAY - IC50) turned out to be 4.79 µM.

In the case of `O=C(OCC(=O)N1N=C(c2ccc(Cl)cc2)CC1c1ccco1)c1[nH]nc2ccccc12` (configuration not stated), the 90% effect concentration (IC90) is over 10 µM. Moreover, the 50% inhibitory concentration (IC50) under setting [1] was over 10 µM.

Regarding `O=C(NCCO)c1cccc(-c2ccc3ncc(-c4cccc(CO)c4)n3n2)c1`, the 90% effect concentration (IC90) came out at 3.67 µM. The 50% inhibitory concentration (IC50) (HEPG2TOX_HILL_SLOPE 1.86, HEPG2TOX_R_SQUARED 0.81, PBLUC_HILL_SLOPE 12.7, PBLUC_R_SQUARED 0.352, read-out: LUCIFERASE INFECTION ASSAY - IC50) turned out to be 3.09 µM.

Take `Cc1ccc2nc(SCC(=O)c3cc(C)n(-c4ccc5c(c4)OCCO5)c3C)[nH]c2c1`: the IC90 was over 10 µM. Further, for the setting “FFLUC_HILL_SLOPE 12.9, FFLUC_R_SQUARED 0.345, HEPG2TOX_HILL_SLOPE 0.403, HEPG2TOX_R_SQUARED 0.877, read-out: LUCIFERASE INFECTION ASSAY - IC50”, the 50% inhibitory concentration (IC50) is over 10 µM.

On to `CCc1cc2c(Sc3nnc(N)s3)ncnc2s1`, for which the 90% effect concentration (IC90) was over 11.2 µM. For the same compound, the IC50 under setting [1] is over 11.2 µM.

Regarding `CCOc1ccccc1NC(=O)COC(=O)c1cc(S(=O)(=O)Nc2cccc(C)c2)ccc1C`, the concentration for an effect of 90% (IC90) is over 10 µM. In addition, the IC50 under setting [1] is over 10 µM.

Consider `COC(=O)c1cc(CSc2nnc(-c3ccc(C)cc3)c(-c3ccc(C)cc3)n2)oc1C`, for which the IC90 is over 10 µM. Besides, the IC50 (FFLUC_HILL_SLOPE 4.52, FFLUC_R_SQUARED 0.588, read-out: LUCIFERASE INFECTION ASSAY - IC50) is over 10 µM.

`COc1cc(Nc2nccc3c2cc(-c2ccc(C(=O)N(C)C)cc2)n3C)cc(C(F)(F)F)c1`: the IC90 amounted to 4.64 µM. Besides, the IC50 (PBLUC_HILL_SLOPE 8.8, PBLUC_R_SQUARED 0.371, read-out: LUCIFERASE INFECTION ASSAY - IC50) worked out at 3.62 µM.

Regarding `CCOc1ccc(-n2c(Sc3ccc4nnnn4n3)nnc2-c2ccc(C(C)(C)C)cc2)cc1`, the IC90 came out at 9.4 µM. Besides, the IC50 (FFLUC_HILL_SLOPE 16.9, FFLUC_R_SQUARED 0.24, PBLUC_HILL_SLOPE 5, PBLUC_R_SQUARED 0.626, read-out: LUCIFERASE INFECTION ASSAY - IC50) is 6.06 µM.

Take `c1ccc(-c2cn3nc(N4CCN(Cc5cn6ccccc6n5)CC4)sc3n2)cc1`: the 90% effect concentration (IC90) came to 6.12 µM. The IC50 (FFLUC_HILL_SLOPE 1.63, FFLUC_R_SQUARED 0.146, PBLUC_HILL_SLOPE 1.5, PBLUC_R_SQUARED 0.683, read-out: LUCIFERASE INFECTION ASSAY - IC50) is 1.42 µM.

In the case of `CC(C)(C)c1ccc(OCc2nc(=O)cc(Nc3ccccc3Cl)[nH]2)cc1`, the concentration for an effect of 90% (IC90) was over 8.6 µM. In addition, the half-inhibitory concentration (IC50) (FFLUC_HILL_SLOPE 11.4, FFLUC_R_SQUARED 0.169, HEPG2TOX_HILL_SLOPE 0.949, HEPG2TOX_R_SQUARED 0.863, read-out: LUCIFERASE INFECTION ASSAY - IC50) was over 8.6 µM.

The values above are taken from ChEMBL document CHEMBL4483862, “Open-source discovery of chemical leads for next-generation chemoprotective antimalarials” (2018).
